# Assays:
# human CB1R = biological target: T1, human CB1R (Homo sapiens, UniProt P21554); assay: CB1R Human Cannabinoid GPCR Cell Based Antagonist cAMP Assay (HTRF, CHO-K1 cells, CP55940 EC80); details: antagonist mode, CP55940 EC80, 20 uM forskolin, read-out: IC50 functional activity of CB1R
# T1 construct: expressed in transfected cells; host or cells: CHO-K1
# Protocol: CB1R Human Cannabinoid GPCR Cell Based Antagonist cAMP Assay
# Evaluation of the potency (IC50) of Compound 1 for the human CB1R in stably transfected CHO-K1 cells was determined in a cAMP cell based assay using HTRF detection method. Cells were seeded in a total volume of 20 μL into white walled, 384-well microplates and incubated at 37 °C overnight prior to testing. Prior to testing cell plating media was exchanged with 10 μL of Assay buffer (HBSS+10 mM HEPES). Briefly, intermediate dilution of sample stocks was performed in assay buffer to generate a sample at 4× the final testing concentration. 5 μL of 4× sample was added to cells and incubated at 37 °C for 30 minutes. 5 μL of CP55940 at 4× the final EC80 concentration in 4× forskolin reagent (at 80 uM) was added and cells incubated for 37 °C for 30 minutes. The final concentration of forskolin in the assay was 20 uM. Final assay vehicle concentration was 1%. The results are expressed as a percent inhibition of CP55940 in antagonist mode.
# obese C57BL/6J DIO mice = assay: Mouse DIO Obesity Study (four weeks, oral once a day); type: in vivo; details: 4 weeks
# Protocol: To determine if Compound 1 might have anti-obesity activity through CB1R antagonism a four week in vivo study in obese C57BL/6J DIO mice was initiated to investigate weight gain, food intake and fasting blood glucose levels (see Table 62 for experimental design). A GMP lot of Compound 1 at different doses was evaluated and compared to DIO mice dosed with vehicle alone. The compound was formulated as a homogenous suspension with Vitamin-E-TPGS, PEG400, Glycerol, Methylcellulose, 10 mM Sodium Citrate buffer pH6 and water. Animals were orally gavaged once-a-day with either test article or vehicle for 4 weeks.
# rats = assay: 28-day GLP rat toxicity study; type: in vivo
# Excerpt: The same suspension formulation used in the mouse obesity model was used for the rat GLP toxicity study.
# [1] = Hygroscopicity and sorption by DVS; type: physicochemical
# Protocol: The hygroscopicity and the sorption properties of polymorphic Form A of Compound 1 were assessed using DVS.
# [2] = Approximate solubility at room temperature in various solvents; type: physicochemical
# [3] = Solubility in water and biorelevant media; type: physicochemical; details: room temperature
# [4] = Water activity experiments (IPA/H2O); type: physicochemical
# [5] = Slurry at room temperature (solid form after three days); type: physicochemical
# Protocol: Slurry experiments were conducted at room temperature in various solvent systems. […] After the suspension was stirred magnetically for three days at room temperature, the remaining solids were isolated for XRPD analysis (Table 14).
# [6] = Slurry at 50 °C (solid form after two days); type: physicochemical
# Protocol: Slurry experiments were conducted at 50 °C in various solvent systems. […] After the suspension was stirred magnetically for two days at 50 °C, the remaining solids were isolated for XRPD analysis (Table 15).
# [7] = Solid vapor diffusion (solid form after seven days at RT); type: physicochemical
# Protocol: Solid vapor diffusion experiments were conducted using various solvents. […] The 20-mL vial was then sealed with a cap and kept at RT for seven days allowing solvent vapor to interact with sample. The remaining solids were isolated for XRPD analysis (Table 16).
# [8] = Excipient compatibility study (4 weeks at 50 °C/75% RH); type: physicochemical
# Protocol: The mixtures were placed in open containers and stored at 50 °C and 75% Relative Humidity (RH) for 4 weeks.
# CB1R = details: cited from earlier work
# T1 sequence (P21554 whole entry): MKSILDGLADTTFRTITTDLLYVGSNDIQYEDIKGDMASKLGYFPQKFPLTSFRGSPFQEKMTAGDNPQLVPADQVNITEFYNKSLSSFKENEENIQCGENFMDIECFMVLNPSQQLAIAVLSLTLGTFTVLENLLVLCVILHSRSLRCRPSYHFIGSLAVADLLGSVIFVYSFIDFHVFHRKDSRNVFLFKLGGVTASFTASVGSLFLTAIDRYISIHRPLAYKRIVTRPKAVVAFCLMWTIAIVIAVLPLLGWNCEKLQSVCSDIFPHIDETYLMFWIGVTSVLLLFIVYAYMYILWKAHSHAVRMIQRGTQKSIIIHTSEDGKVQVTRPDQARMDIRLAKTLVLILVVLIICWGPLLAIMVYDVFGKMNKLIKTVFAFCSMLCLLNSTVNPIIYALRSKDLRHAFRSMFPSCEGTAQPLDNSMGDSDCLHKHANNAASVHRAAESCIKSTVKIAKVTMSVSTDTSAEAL
compound,measurement,setting,value
"Cc1cc2ncc(-c3ccc(OC(C)(C)C)cc3)n2cc1-c1ccc(OC(C)C)cc1 [Compound 1, 3-(4-(tert-butoxy)phenyl)-6-(4-isopropoxyphenyl)-7-methylimidazo[1,2-a]pyridine]",IC50,human CB1R,3.8 µM
same,food intake vs vehicle,obese C57BL/6J DIO mice; 30 mg/kg/day,significantly lower
same,body weight vs vehicle,obese C57BL/6J DIO mice; 10 and 30 mg/kg/day,significant decreases in body weight
same,fasting blood glucose vs vehicle,"obese C57BL/6J DIO mice; oral once-a-day, FIG. 16",no significant effect on fasting blood glucose
same,percent weight gain vs vehicle,"obese C57BL/6J DIO mice; oral once-a-day, group 4 and 5, FIG. 15",significant dose-dependent drop in percent weight gain
same,food intake vs vehicle,"obese C57BL/6J DIO mice; oral once-a-day, group 5, FIG. 15",significant reduced food intake
same,mean cholesterol vs vehicle,"rats; 28-day GLP rat toxicity study, FIG. 17",significant dose-dependent decreases in mean cholesterol
same,cholesterol levels,"rats; all doses tested including 10, 30 and 50 mg/kg/day, 28-day",significantly reduced
same,CNS effect (functional observational battery),rats; rat 28-day GLP toxicity study,no evidence of CNS effect
"Cc1cc2ncc(-c3ccc(OC(C)(C)C)cc3)n2cc1-c1ccc(OC(C)C)cc1 [Polymorphic Form A of Compound 1, 3-(4-(tert-butoxy)phenyl)-6-(4-isopropoxyphenyl)-7-methylimidazo[1,2-a]pyridine]",weight increase (DVS),[1]; 80% RH,~ 0.28%
same,weight increase (DVS),[1]; 95% RH,less than 0.5%
same,hygroscopicity,[1]; DVS,slightly hygroscopic
same,solubility,"[2]; organic solvent or mixture, 1-4-dioxane",> 60 mg/mL
same,solubility,"[2]; organic solvent or mixture, 1-Butanol",> 60 mg/mL
same,solubility,"[2]; organic solvent or mixture, 2-MeTHF",> 56 mg/mL
same,solubility,"[2]; organic solvent or mixture, 2 butanol",> 54 mg/mL
same,solubility,"[2]; organic solvent or mixture, Acetone",> 56 mg/mL
same,solubility,"[2]; organic solvent or mixture, Acetonitrile",28 to 56 mg/mL
same,solubility,"[2]; organic solvent or mixture, CPME",> 46 mg/mL
same,solubility,"[2]; organic solvent or mixture, DCM",> 48 mg/mL
same,solubility,"[2]; organic solvent or mixture, DMF",> 60 mg/mL
same,solubility,"[2]; organic solvent or mixture, DMSO",8 to 24 mg/mL
same,solubility,"[2]; organic solvent or mixture, EtOH",> 48 mg/mL
same,solubility,"[2]; organic solvent or mixture, IPAC",> 48 mg/mL
same,solubility,"[2]; organic solvent or mixture, Isopropanol",> 52 mg/mL
same,solubility,"[2]; organic solvent or mixture, MEK",> 52 mg/mL
same,solubility,"[2]; organic solvent or mixture, MIBK",> 50 mg/mL
same,solubility,"[2]; organic solvent or mixture, MTBE",28 to 56 mg/mL
same,solubility,"[2]; organic solvent or mixture, MeOH",> 48 mg/mL
same,solubility,"[2]; organic solvent or mixture, THF",> 50 mg/mL
same,solubility,"[2]; organic solvent or mixture, Toluene",> 46 mg/mL
same,solubility,"[2]; organic solvent or mixture, n-Heptane",2.8 to 9.3 mg/mL
same,solubility,"[2]; organic solvent or mixture, n-Propanol",> 52 mg/mL
same,solubility,"[2]; water, H2O",< 2.4 mg/mL
same,solubility at 24 h,"[3]; FaSSIF, pH 6.73",0.041 mg/mL
same,solubility at 24 h,"[3]; FeSSIF, pH 5.07",0.224 mg/mL
same,solubility at 24 h,"[3]; Simulated Gastric Fluid (SGF), pH 2.38",0.532 mg/mL
same,solubility at 24 h,"[3]; Water, pH 6.63",< 0.0125 mg/mL
same,Solid Form,[4]; H2O aw = 1,Form A
same,Solid Form,"[4]; IPA/H2O aw = 0.2, 982/18",Form A
same,Solid Form,"[4]; IPA/H2O aw = 0.4, 956/44",Form A + B
same,Solid Form,"[4]; IPA/H2O aw = 0.6, 919/81",Form C
same,Solid Form,"[4]; IPA/H2O aw = 0.8, 847/153",Form C
same,Solid Form,"[5]; RT, 1,4 Dioxane:H2O (3:7)",Form A
same,Solid Form,"[5]; RT, ACN",Form A
same,Solid Form,"[5]; RT, ACN:H2O (4:6)",Form A
same,Solid Form,"[5]; RT, DCM:n-Heptane (2:8)",Form A
same,Solid Form,"[5]; RT, DMF:H2O (3:7)",Form B
same,Solid Form,"[5]; RT, DMSO",Form A
same,Solid Form,"[5]; RT, DMSO:H2O (4:6)",Form B
same,Solid Form,"[5]; RT, EtOH:n-Heptane (2:8)",Form C
same,Solid Form,"[5]; RT, H2O",Form A
same,Solid Form,"[5]; RT, MEK:n-Heptane (2:8)",Form A
same,Solid Form,"[5]; RT, MTBE",Form A
same,Solid Form,"[5]; RT, MTBE:n-Heptane (3:7)",Form D
same,Solid Form,"[5]; RT, THF:n-Heptane (2:8)",Form A
same,Solid Form,"[5]; RT, n-Heptane",Form A
same,Solid Form,[6]; ACN,Form A
same,Solid Form,[6]; ACN:H2O (1:1),Form E
same,Solid Form,[6]; DMSO,Amorphous
same,Solid Form,[6]; DSMO:H2O (1:1),Amorphous
same,Solid Form,[6]; EtOH:H2O (1:1),Form E
same,Solid Form,[6]; H2O,Form A
same,Solid Form,[6]; H2O:Acetone (7:3),Form B
same,Solid Form,[6]; H2O:EtOH (6:4),"Form B, Low Crystalline"
same,Solid Form,[6]; H2O:MeOH (7:3),Form A
same,Solid Form,[6]; H2O:THF (7:3),Form A
same,Solid Form,[6]; H2O:n-Propanol (6:4),"Form B, Peak Missing at 2-"
same,Solid Form,[6]; MTBE,Form A
same,Solid Form,[6]; n-Heptane,Form A
same,Solid Form,"[6]; n-Heptane:1,4-dioxane (19:1)",Gel
same,Solid Form,[6]; n-Heptane:Acetone (19:1),Form A
same,Solid Form,[6]; n-Heptane:IPA (19:1),Form B
same,Solid Form,[6]; n-Heptane:Toluene (19:1),Form A
same,Solid Form,[7]; 2-MeTHF vapor,Gel
same,Solid Form,[7]; Acetone vapor,Form A
same,Solid Form,[7]; CPME vapor,Form D
same,Solid Form,[7]; EtOH vapor,Form F
same,Solid Form,[7]; IPA vapor,Form A
same,Solid Form,[7]; MEK vapor,Gel
same,Solid Form,[7]; MTBE vapor,Form A
same,Solid Form,[7]; Toluene vapor,Form A
same,Solid Form,[7]; n-Propanol vapor,"Form A, Low Crystalline"
same,excipient compatibility,[8],compatible with all excipients and blends in Table 22
same,Appearance,[8]; open containers,White granular powder.
same,degraded at 672 h,"[8]; open containers, read-out: Total Related Substances",0.3%
Cc1c(C(=O)NN2CCCCC2)nn(-c2ccc(Cl)cc2Cl)c1-c1ccc(Cl)cc1 [Rimonabant],"cardiometabolic parameters (waist circumference, hemoglobin A1c, HDL, plasma cholesterol, triglycerides)","CB1R; clinical trials, obese people",improved multiple cardiometabolic parameters
same,weight loss,"CB1R; clinical trials, obese people",weight loss in obese people
same,neuropsychiatric side-effects,CB1R; clinical use,withdrawn from clinical use due to its neuropsychiatric side-effects
